Data: PubChem BioAssay (NCI)
Values joined by “and” are separate entries in the source; they are usually repeats but may differ in a detail not shown here. Equal entries are not always repeated.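 A five-concentration, 48-hour dose response in 96-well plates underlies each endpoint, interpolated linearly between surrounding concentrations. GI50 marks 50% less growth. Definition used: TGI = concentration required for complete inhibition of growth.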

Legend:
Assay in all cases: growth of human tumour cells (NCI), 48 h
OVCAR-4 ovarian = system: OVCAR-4 ovarian
ACHN renal = system: ACHN renal
MALME-3M melanoma = system: MALME-3M melanoma
SK-OV-3 ovarian = system: SK-OV-3 ovarian
PC-3 prostate = system: PC-3 prostate
MOLT-4 leukemia = system: MOLT-4 leukemia
HS 578T breast = system: HS 578T breast
IGROV1 ovarian = system: IGROV1 ovarian
BT-549 breast = system: BT-549 breast
SK-MEL-5 melanoma = system: SK-MEL-5 melanoma

Compound	GI50 (OVCAR-4 ovarian) [µM]	TGI (OVCAR-4 ovarian)	GI50 (ACHN renal)	TGI (ACHN renal)	GI50 (MALME-3M melanoma)	TGI (MALME-3M melanoma)	GI50 (SK-OV-3 ovarian)	TGI (SK-OV-3 ovarian)	GI50 (PC-3 prostate)	TGI (PC-3 prostate)	GI50 (MOLT-4 leukemia)	TGI (MOLT-4 leukemia)	GI50 (HS 578T breast)	TGI (HS 578T breast)	GI50 (IGROV1 ovarian)	TGI (IGROV1 ovarian)	GI50 (BT-549 breast)	TGI (BT-549 breast)	GI50 (SK-MEL-5 melanoma)	TGI (SK-MEL-5 melanoma)
COc1cc(C2C3=C(COC3=O)Nc3c2ccc2c3CCCC2)cc2c1OCO2 (configuration not stated)	0.121	> 100 µM	0.134 µM	> 100 µM	81.5 µM	> 100 µM	0.0311 µM	0.103 µM	0.0387 µM	> 100 µM	0.13 µM	> 42.4 µM	0.0367 µM	45.5 µM	0.0765 µM	> 100 µM	0.118 µM	30.5 µM	0.0381 µM	0.199 µM
COc1cc(-c2cc(/C=C/C(=O)c3ccc(Cl)c(Cl)c3)[nH]n2)cc(OC)c1OC	10.8	50.9 µM	21.4 µM	> 100 µM	29.2 µM	> 100 µM	4.19 µM	18.8 µM	5.96 µM	> 100 µM	4.38 µM	40.6 µM	16.6 µM	> 100 µM	24 µM	> 100 µM	8.4 µM	29.2 µM	13.4 µM	46.9 µM
O=c1c(NO)c([N+](=O)[O-])cnn1-c1ccccc1	–	6.95 µM	–	15.9 µM	–	12 µM	–	13.3 µM	–	2.97 µM	–	10.5 µM	–	11 µM	–	41.1 µM	–	2.93 µM	–	12.4 µM
C/C=C/[C@H]1O[C@@H]2C(=C[C@H]1O)C(=O)O[C@H]2C	12.3	33.3 µM	7.71 µM	22.9 µM	7.59 µM	24.2 µM	> 50.2 µM	> 66.7 µM	14.8 µM	30.8 µM	2.77 µM	10.5 µM	23.3 µM	49.8 µM	17.1 µM	> 59.9 µM	10.5 µM	22.5 µM	9.89 µM	23.3 µM
CCN(CC)CCN(Cc1ccc(F)cc1)c1ccc(CO)c(Cl)c1	4.6	35.2 µM	38.2 µM	> 100 µM	19.5 µM	37.3 µM	2.96 µM	13.6 µM	13.2 µM	> 92.3 µM	40.1 µM	> 100 µM	48.3 µM	> 100 µM	0.832 µM	3.61 µM	> 89.6 µM	> 100 µM	16.3 µM	30.1 µM
C[C@]12CC[C@H]3[C@@H](C[C@@H]4SC(Nc5ccccc5)=N[C@@]45CC(O)CC[C@]35C)[C@@H]1CCC2O (some centres not stated)	3.13	15.4 µM	1.71 µM	3.25 µM	2.19 µM	5.89 µM	5.16 µM	17.9 µM	2.37 µM	5.85 µM	1.87 µM	8.07 µM	2.16 µM	17.2 µM	2.78 µM	7.85 µM	1.38 µM	4.31 µM	1.82 µM	3.41 µM
COc1c(-c2ccc(O)c(O)c2)oc2c(O)c(O)cc(O)c2c1=O	–	> 100 µM	–	> 100 µM	–	> 100 µM	–	> 100 µM	–	> 100 µM	–	73.8 µM	–	> 100 µM	–	70.7 µM	–	> 100 µM	–	> 100 µM
O=C1C(=O)c2ccccc2C(O)=C1CCCc1ccc(C2CCCCCC2)cc1	1.02	> 100 µM	0.703 µM	> 100 µM	0.816 µM	22.6 µM	2.85 µM	54.6 µM	0.542 µM	> 42.4 µM	0.618 µM	> 32.1 µM	4.84 µM	57.8 µM	0.486 µM	5.89 µM	1.14 µM	19.5 µM	0.445 µM	11.5 µM
Cc1[nH]c(-c2nc3ccccc3[nH]2)c(C)c1C(=O)NC(C)C1CCCCC1 (configuration not stated)	12.4	26.8 µM	14.4 µM	30.2 µM	5.68 µM	22.5 µM	15.3 µM	34.4 µM	12 µM	28.4 µM	4.95 µM	28.1 µM	8.88 µM	30.9 µM	6.16 µM	23.9 µM	10.7 µM	23.2 µM	10.3 µM	22.3 µM
CCC(=O)Nc1ccccc1C#C/C=C\C#Cc1ccccc1C(F)(F)F	14.6	> 50 µM	3.98 µM	> 50 µM	7.54 µM	> 50 µM	1.7 µM	> 50 µM	4.08 µM	> 50 µM	4.11 µM	> 23.3 µM	1.35 µM	9.19 µM	3.39 µM	> 18.9 µM	2.21 µM	32.5 µM	5.44 µM	18.1 µM
Cc1ccc(C2=C(c3ccccc3)C(c3ccccc3)Oc3ccc(C)cc32)cc1 (configuration not stated)	2.27	7.44 µM	16.6 µM	31.2 µM	23.1 µM	48.3 µM	–	–	12.8 µM	34.4 µM	8.86 µM	31.5 µM	2.74 µM	10.1 µM	2.49 µM	7.1 µM	4.76 µM	20.4 µM	1.92 µM	3.63 µM
c1cncc(C2Nc3cccc4cccc(c34)N2)c1	13.8	27.3 µM	17.3 µM	34.5 µM	25.6 µM	57.7 µM	> 100 µM	> 100 µM	18.5 µM	46.7 µM	42.5 µM	> 100 µM	73.4 µM	> 100 µM	11.8 µM	25.6 µM	29.5 µM	95 µM	66.3 µM	> 100 µM
C/C(=N\NC(=S)N1CC2CCC(CC2)C1)c1cccc(C)n1	0.000172	16.1 µM	–	5.33 µM	0.605 µM	17.8 µM	–	7.47 µM	–	15.6 µM	< 0.0001 µM	0.00764 µM	–	27 µM	–	13.9 µM	–	10.3 µM	0.287 µM	13.7 µM
COC(=O)/C=C1/SC(N2N=C(c3cccs3)CC2c2ccc(F)cc2)=NC1=O (configuration not stated)	2.64	7.49 µM	1.89 µM	3.47 µM	2.44 µM	8.51 µM	9.78 µM	53.9 µM	1.92 µM	4.3 µM	2.65 µM	7.25 µM	4.46 µM	> 100 µM	2.4 µM	7.06 µM	3.21 µM	8.09 µM	1.78 µM	3.36 µM
CC(=O)C1=C(C)N(C)C2(O)C=CC(=O)C3=C(O)c4ccccc4C(=O)C312 (configuration not stated)	17.1	34.2 µM	10.8 µM	28.8 µM	1.51 µM	4.01 µM	6.9 µM	32.4 µM	3.42 µM	15.9 µM	3.53 µM	> 100 µM	7.23 µM	40.5 µM	23.5 µM	> 100 µM	13.6 µM	27.9 µM	2.51 µM	9.02 µM
C/C(=N\NC(=S)N1CCCCCCCCCCCC1)c1ccccn1	–	1.51 µM	–	1.41 µM	–	1.08 µM	–	–	–	1.1 µM	–	1.07 µM	–	0.942 µM	–	1.35 µM	–	1.6 µM	–	0.636 µM
O=C(O)CCc1c2ccc(=O)c(O)c-2oc2c(O)c(O)ccc12	–	> 100 µM	–	> 100 µM	–	> 100 µM	–	> 100 µM	–	> 100 µM	–	65.7 µM	–	> 100 µM	–	> 100 µM	–	> 100 µM	–	> 100 µM
Oc1cccc(/C=N/Nc2nnc(N/N=C/c3cccc(O)c3)c3ccccc23)c1	–	82.6 µM	–	40.7 µM	–	57.3 µM	–	> 100 µM	–	44.4 µM	–	6.43 µM	–	52.9 µM	–	47.7 µM	–	44.8 µM	–	8.86 µM
COC(=O)C(CBr)CBr	–	8.58 µM	–	10.1 µM	–	4.93 µM	–	33.8 µM	–	23 µM	–	16.4 µM	–	19.4 µM	–	25.5 µM	–	6.58 µM	–	25.1 µM
Cc1[nH]nc2c1N=C(c1ccccc1F)c1cc(C(N)=O)ccc1N2	5.25	> 25 µM	3.3 µM	> 22.9 µM	18.3 µM	> 25 µM	6.43 µM	> 25 µM	2.26 µM	> 25 µM	6.63 µM	22 µM	0.511 µM	7.25 µM	8.29 µM	> 22.5 µM	2.9 µM	12.8 µM	3.11 µM	9.03 µM
Cc1ccn2c(CCc3nnc4cc(C)ccn34)nnc2c1	–	> 100 µM	–	> 100 µM	–	> 100 µM	–	> 100 µM	–	> 100 µM	–	> 100 µM	–	> 100 µM	–	> 100 µM	–	> 100 µM	–	> 100 µM
CCCCNC(=O)c1cc(NCc2cc(O)ccc2O)ccc1O	12.3	24.8 µM	10.8 µM	22.7 µM	11.8 µM	27.3 µM	67.5 µM	> 100 µM	10.3 µM	27.4 µM	4.02 µM	44.4 µM	24.8 µM	> 100 µM	26.1 µM	62.7 µM	3.24 µM	13.5 µM	15.4 µM	29.6 µM
Cc1ccc(C(SCC(N)C(=O)O)(c2ccccc2)c2ccccc2)cc1 (configuration not stated)	22.8	> 100 µM	2.67 µM	> 100 µM	–	> 100 µM	0.0748 µM	> 94.7 µM	0.075 µM	> 100 µM	0.244 µM	> 100 µM	0.0371 µM	0.913 µM	0.141 µM	> 71.3 µM	0.145 µM	> 69.7 µM	0.0452 µM	19.6 µM
N#Cc1c(N)nc(N)nc1N[C@H](c1nc2c(F)ccc(Cl)c2c(=O)n1-c1cccnc1)C1CC1	19.4	87.1 µM	3.31 µM	> 100 µM	10.9 µM	> 100 µM	2.41 µM	11.4 µM	2.3 µM	29.3 µM	3.33 µM	28.8 µM	2.53 µM	57.7 µM	1.22 µM	5.31 µM	0.761 µM	17.3 µM	8.33 µM	21.9 µM
CN1CCN(c2nc(NCCCNc3ccnc4cc(Cl)ccc34)c3ccccc3n2)CC1	2.69	12.5 µM	3.92 µM	13.6 µM	1.98 µM	3.84 µM	6.46 µM	22.5 µM	6.14 µM	20.7 µM	3.25 µM	15.2 µM	3.35 µM	19 µM	4.52 µM	18.9 µM	4.4 µM	16.7 µM	1.78 µM	3.18 µM
Cc1ccc(C2=C(c3ccc(C)cc3)C3(c4ccc(C)cc4)C4C(=O)c5ccccc5C(=O)C4C2(c2ccc(C)cc2)S3=O)cc1 (configuration not stated)	45	> 100 µM	> 100 µM	> 100 µM	> 100 µM	> 100 µM	> 100 µM	> 100 µM	> 100 µM	> 100 µM	> 100 µM	> 100 µM	> 100 µM	> 100 µM	> 100 µM	> 100 µM	> 100 µM	> 100 µM	> 100 µM	> 100 µM
C=C(CC(=O)O)C(=O)O (tested in a mixture with another compound)	–	–	> 50 µg/mL	> 50 µg/mL	> 50 µg/mL	> 50 µg/mL	> 50 µg/mL	> 50 µg/mL	> 50 µg/mL	> 50 µg/mL	> 50 µg/mL	> 50 µg/mL	> 50 µg/mL	> 50 µg/mL	> 50 µg/mL	> 50 µg/mL	> 50 µg/mL	> 50 µg/mL	> 50 µg/mL	> 50 µg/mL
CC(C)n1nc(-c2ccc3oc(N)nc3c2)c2c(N)ncnc21	< 0.01	0.077 µM and 0.0569 µM	0.0105 µM and 0.013 µM	1.14 µM and 0.82 µM	< 0.01 µM	< 0.01 µM and 0.022 µM	< 0.01 µM	0.049 µM and 0.0548 µM	< 0.01 µM	3.94 µM and 2.57 µM	0.0325 µM and 0.0438 µM	5.9 µM and 9.49 µM	< 0.01 µM	0.0323 µM and 0.0517 µM	< 0.01 µM	0.0554 µM and 0.277 µM	< 0.01 µM	–	0.0171 µM and < 0.0114 µM	0.143 µM and 0.0865 µM
